Data on 25 molecules can be found in US20040235855A1, “Phospholipase C inhibitors for use in treating inflammatory disorders” (priority 2003, published 2004).

Structures are written as SMILES.

This assay deals with T1, human PLC-β2 (Homo sapiens, UniProt Q00722).
T1 construct: made in house; host or cells: Sf9 cells (Spodoptera frugiperda), recombinant baculovirus
The experiment in a line: PLC assay using FlashPlates (96-well, immobilized [3H]PIP2 substrate). The settings on record: purified recombinant human PLC-β2 or cytosolic human PLC-β2; hydrolysis of [3H]PIP2. The format is biochemical. An excerpt: The hydrolysis of phosphatidylinositol-4,5-bisphosphate (PIP2) by a specific phospholipase C-β2 (PLC-β2) produces two intracellular messengers, diacylglycerol (DAG) and inositol 1,4,5-trisphosphate (IP3), which mediate the activation of protein kinase C and intracellular Ca^2+ release. A conventional organic solvent extraction method is widely used for PLC assays to isolate IP3 from the substrate PIP2. The conventional PLC-β2 assay, however is terminated by addition of acidified organic solvents and subsequent extraction and phase separation. […] Accordingly, a preferred method to test the compounds of the present invention, was developed utilizing a 96-well plate assay for PLC-β2 using immobilized radiolabeled substrate to quantitatively measure the reduction in the substrate level without a need for organic solvent extraction. The automated PLC-β2 assay described herein provides a convenient method for quantitative measurement of phospholipase C activities in a high throughput fashion. Ninety-six well Phospholipid FlashPlates were coated with 0.2 mL of 50 mM Tris/HCl (pH 7.4), 0.01% Ac-BSA and 50,000 cpm of […] (phosphatidylinositol-4,5-bisphosphate) at 4° C. for 72 h. The wells were aspirated and washed twice with PBS. The reactions were conducted directly in the wells in PLC reaction buffer containing 50 mM Tris/HCl (pH 7.2), 2.75 mM EDTA (pH 7.3), 80 mM KCl, 10 mM LiCl, 0.04% DOC and 2 mM CaCl2 in the absence or presence of the purified recombinant human PLC-β2 (prepared as described hereafter) or cytosolic human PLC-β2 from […]. Reduction of radioactivity was monitored by a Packard TopCount instrument (Packard Instrument Company, Conn., USA). […] The cells were grown in Grace's media supplemented with 10% (v/v) fetal bovine serum, 3.3 g/l yeastolate, 3.3 g/l lactalbumin hydrosylate, glutamine (6.4 mM final), 50 μg/ml gentamicin, and 50 μg/ml kanamycin. Suspension of Sf9 cells (1.0×10^6 cells/ml) were infected with 5 pfu/cell of recombinant baculovirus encoding PLC-β2 and incubated at 27° C. for 72 h. The cells were collected by centrifugation (500×g, 7 min, 4° C.) and disrupted by hypotonic lysis buffer containing 20 mM Tris/HCl, pH 7.4, 5 mM MgCl2, 2 mM EGTA, 200 μM PMSF, 200 μM benzamidine and 1 μM pepstatin A. The lysate was sonicated on ice and the nuclei and unbroken cells removed by centrifigation (500×g, 5 min, 4C.). The supernatant was recovered and clarified by centrifugation (34,000 rpm, 60 min, 4C.). The supernatant was used as a crude cytosolic fraction (Paterson, A., Boyer, J. L., Watts, V. J., Morris, A. J., Price, […]. (1995) Concentration of enzyme-dependent activation of PLC β1 and PLC β2 by Gα11 and βγ subunits. Cellular Signalling 7, 709-720). Crude cytosol prepared from Sf9 cells expressing PLC-β2 was purified initially by chromatography on a 10 ml column of Q-Sepharose FF, equilibrated in buffer A (25 mM HEPES, pH 7.2,2 mM DTT, 2 mM EDTA, 2 mM EGTA, 200 μM PMSF, 200 μM benzamidine, 1 μM pepstatin A containing 10 mM NaCl). The column was washed with 20 ml of equilibration buffer and eluted with a 200-ml gradient of 110-410 mM NaCl in buffer A. The fractions containing PLC activity were pooled and diluted with buffer A. The diluted enzyme was applied to a 4 ml column of heparin-SepharoseCL-6B equilibrated in buffer A and the column washed with 70 ml of buffer A. The column was eluted with 80 ml of gradient of 0-1.0 M NaCl in buffer A, the column eluate collected in 3 ml fractions. […]

T1 sequence (Q00722 whole entry): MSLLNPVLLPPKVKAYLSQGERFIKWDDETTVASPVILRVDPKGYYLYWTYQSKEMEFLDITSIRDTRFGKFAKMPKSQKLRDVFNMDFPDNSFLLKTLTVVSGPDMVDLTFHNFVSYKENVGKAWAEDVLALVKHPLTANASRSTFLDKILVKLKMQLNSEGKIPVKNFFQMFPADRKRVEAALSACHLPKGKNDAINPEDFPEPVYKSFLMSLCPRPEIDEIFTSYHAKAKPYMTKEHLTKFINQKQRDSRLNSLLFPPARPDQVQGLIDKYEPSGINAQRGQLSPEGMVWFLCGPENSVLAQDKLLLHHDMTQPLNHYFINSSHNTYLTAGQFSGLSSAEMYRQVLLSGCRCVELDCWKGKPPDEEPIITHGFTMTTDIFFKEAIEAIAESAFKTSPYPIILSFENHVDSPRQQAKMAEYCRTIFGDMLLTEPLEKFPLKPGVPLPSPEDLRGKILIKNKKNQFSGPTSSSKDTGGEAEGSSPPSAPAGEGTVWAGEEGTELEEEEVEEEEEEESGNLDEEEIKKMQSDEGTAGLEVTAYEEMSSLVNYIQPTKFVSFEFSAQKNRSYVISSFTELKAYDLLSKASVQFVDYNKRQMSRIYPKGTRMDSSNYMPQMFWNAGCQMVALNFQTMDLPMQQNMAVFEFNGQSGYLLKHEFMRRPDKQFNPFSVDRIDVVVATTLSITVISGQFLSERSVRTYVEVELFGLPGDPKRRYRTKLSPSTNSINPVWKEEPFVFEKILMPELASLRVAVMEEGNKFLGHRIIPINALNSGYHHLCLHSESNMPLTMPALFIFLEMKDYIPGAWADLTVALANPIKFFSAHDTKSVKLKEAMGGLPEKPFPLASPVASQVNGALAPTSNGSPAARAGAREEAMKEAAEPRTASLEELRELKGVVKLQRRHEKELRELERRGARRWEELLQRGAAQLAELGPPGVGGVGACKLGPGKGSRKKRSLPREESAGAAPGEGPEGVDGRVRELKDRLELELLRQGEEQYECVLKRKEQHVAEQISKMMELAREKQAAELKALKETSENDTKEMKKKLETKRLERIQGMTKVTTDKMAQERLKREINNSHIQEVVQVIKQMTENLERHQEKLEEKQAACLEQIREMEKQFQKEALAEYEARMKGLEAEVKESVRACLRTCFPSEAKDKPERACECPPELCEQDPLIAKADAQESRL

For `COc1ccccc1N1CCN(c2ccc(C(N)=O)cc2NC(=O)Nc2ccccc2)CC1` [Cpd 1, 4-[4-(2-methoxyphenyl)-1-piperazinyl]-3-[[(phenylamino)carbonyl]amino]-benzamide], the half-inhibitory concentration (IC50) is 23.4 µM.

For `NC(=O)c1ccc(N2CCN(Cc3ccccc3)CC2)c(NC(=O)Nc2ccccc2)c1` [Cpd 2, 3-[[(phenylamino)carbonyl]amino]-4-[4-(phenylmethyl)-1-piperazinyl]-benzamide], the IC50 was greater than 25 µM.

For the molecule `NC(=O)c1ccc(N2CCN(C(c3ccc(F)cc3)c3ccc(F)cc3)CC2)c(NC(=O)Nc2ccccc2)c1` [Cpd 3, 4-[4-[bis(4-fluorophenyl)methyl]-1-piperazinyl]-3-[[(phenylamino)carbonyl]amino]-benzamide], the IC50 came to 1.5 µM.

On to `NC(=O)c1ccc(N2CCN(C(c3ccc(F)cc3)c3ccc(F)cc3)CC2)c(NC(=O)Nc2ccccc2F)c1` [Cpd 4, 4-[4-[bis(4-fluorophenyl)methyl]-1-piperazinyl]-3-[[[(2-fluorophenyl)amino]carbonyl]amino]-benzamide], for which the IC50 was 2.1 µM.

As to `NC(=O)c1ccc(N2CCN(C(c3ccccc3)c3ccccc3)CC2)c(NC(=O)Nc2ccc([N+](=O)[O-])cc2)c1` [Cpd 5, 4-[4-(diphenylmethyl)-1-piperazinyl]-3-[[[(4-nitrophenyl)amino]carbonyl]amino]-benzamide], the IC50 was 9.9 µM.

`NC(=O)c1ccc(N2CCN(C(c3ccccc3)c3ccccc3)CC2)c(NC(=O)NCc2ccccc2)c1` [Cpd 6, 4-[4-(diphenylmethyl)-1-piperazinyl]-3-[[[(phenylmethyl)amino]carbonyl]amino]-benzamide]: the IC50 came to 9 µM.

Consider `Cc1cc(C)cc(NC(=O)Nc2cc(C(N)=O)ccc2N2CCN(C(c3ccccc3)c3ccccc3)CC2)c1` [Cpd 7, 3-[[[(3,5-dimethylphenyl)amino]carbonyl]amino]-4-[4-(diphenylmethyl)-1-piperazinyl]-benzamide], for which the IC50 stood at 5.3 µM.

For the molecule `NC(=O)c1ccc(N2CCN(C(c3ccccc3)c3ccccc3)CC2)c(NC(=O)Nc2ccccc2)c1` [Cpd 8, 4-[4-(diphenylmethyl)-1-piperazinyl]-3-[[(phenylamino)carbonyl]amino]-benzamide], the IC50 was 1.2 µM.

With `NC(=O)c1ccc(N2CCN(C(c3ccccc3)c3ccccc3)CC2)c(NC(=O)NC2CCCCC2)c1` [Cpd 10, 3-[[(cyclohexylamino)carbonyl]amino]-4-[4-(diphenylmethyl)-1-piperazinyl]-benzamide], the IC50 worked out at 14 µM.

As to `C[C@H](NC(=O)Nc1cc(C(N)=O)ccc1N1CCN(C(c2ccccc2)c2ccccc2)CC1)c1ccccc1` [Cpd 11, 4-[4-(diphenylmethyl)-1-piperazinyl]-3-[[[[(1S)-1-phenylethyl]amino]carbonyl]amino]-benzamide], the 50% inhibitory concentration (IC50) came to 8.4 µM.

Consider `CCCCNC(=O)Nc1cc(C(N)=O)ccc1N1CCN(C(c2ccccc2)c2ccccc2)CC1` [Cpd 12, 3-[[(butylamino)carbonyl]amino]-4-[4-(diphenylmethyl)-1-piperazinyl]-benzamide], for which the IC50 worked out at 14.5 µM.

For the molecule `NC(=O)c1ccc(N2CCN(C(c3ccccc3)c3ccccc3)CC2)c(NC(=O)Nc2ccc(F)cc2)c1` [Cpd 13, 4-[4-(diphenylmethyl)-1-piperazinyl]-3-[[[(4-fluorophenyl)amino]carbonyl]amino]-benzamide], the IC50 amounted to 1.3 µM.

For `NC(=O)c1ccc(N2CCN(C(c3ccc(F)cc3)c3ccc(F)cc3)CC2)c(NC(=O)Nc2ccc3c(c2)OCO3)c1` [Cpd 14, 3-[[(1,3-benzodioxol-5-ylamino)carbonyl]amino]-4-[4-[bis(4-fluorophenyl)methyl]-1-piperazinyl]-benzamide], the IC50 amounted to 3.1 µM.

On to `Cc1ccc(NC(=O)Nc2cc(C(N)=O)ccc2N2CCN(C(c3ccc(F)cc3)c3ccc(F)cc3)CC2)c(C)c1` [Cpd 15, 4-[4-[bis(4-fluorophenyl)methyl]-1-piperazinyl]-3-[[[(2,4-dimethylphenyl)amino]carbonyl]amino]-benzamide], for which the IC50 was 4.8 µM.

As to `CC(NC(=O)Nc1cc(C(N)=O)ccc1N1CCN(C(c2ccc(F)cc2)c2ccc(F)cc2)CC1)c1ccccc1` (stereo not shown) [Cpd 16, 4-[4-[bis(4-fluorophenyl)methyl]-1-piperazinyl]-3-[[[(1-phenylethyl)amino]carbonyl]amino]-benzamide], the IC50 was 6 µM.

Turning to `COc1ccccc1NC(=O)Nc1cc(C(N)=O)ccc1N1CCN(C(c2ccc(F)cc2)c2ccc(F)cc2)CC1` [Cpd 17, 4-[4-[bis(4-fluorophenyl)methyl]-1-piperazinyl]-3-[[[(2-methoxyphenyl)amino]carbonyl]amino]-benzamide], the IC50 is 2.8 µM.

For the molecule `COc1ccc(NC(=O)Nc2cc(C(N)=O)ccc2N2CCN(C(c3ccc(F)cc3)c3ccc(F)cc3)CC2)c(OC)c1` [Cpd 18, 4-[4-[bis(4-fluorophenyl)methyl]-1-piperazinyl]-3-[[[(2,4-dimethoxyphenyl)amino]carbonyl]amino]-benzamide], the IC50 came to 4.6 µM.

As for `CN(C)c1ccc(NC(=O)Nc2cc(C(N)=O)ccc2N2CCN(C(c3ccc(F)cc3)c3ccc(F)cc3)CC2)cc1` [Cpd 19, 4-[4-[bis(4-fluorophenyl)methyl]-1-piperazinyl]-3-[[[[4-(dimethylamino)phenyl]amino]carbonyl]amino]-benzamide], the IC50 came to 2.9 µM.

As to `COc1ccc(NC(=O)Nc2cc(C(N)=O)ccc2N2CCN(C(c3ccc(F)cc3)c3ccc(F)cc3)CC2)cc1` [Cpd 20, 4-[4-[bis(4-fluorophenyl)methyl]-1-piperazinyl]-3-[[[(4-methoxyphenyl)amino]carbonyl]amino]-benzamide], the IC50 worked out at 4.3 µM.

For the molecule `NC(=O)c1ccc(N2CCN(C(c3ccc(F)cc3)c3ccc(F)cc3)CC2)c(NC(=S)Nc2ccccc2)c1` [Cpd 22, 4-[4-[bis(4-fluorophenyl)methyl]-1-piperazinyl]-3-[[(phenylamino)thioxomethyl]amino]-benzamide], the concentration for half-maximal inhibition (IC50) is 1.2 µM.

As for `CN1CCN(C(=O)c2ccc(N3CCN(C(c4ccccc4)c4ccccc4)CC3)c(NC(=O)Nc3ccccc3)c2)CC1` [Cpd 23, N-[2-[4-(diphenylmethyl)-1-piperazinyl]-5-[(4-methyl-1-piperazinyl)carbonyl]phenyl]-N′-phenylurea], the IC50 is 4.9 µM.

`O=C(Nc1ccccc1)Nc1cc(C(=O)N2CCCNCC2)ccc1N1CCN(C(c2ccccc2)c2ccccc2)CC1` [Cpd 24, N-[2-[4-(diphenylmethyl)-1-piperazinyl]-5-[(hexahydro-1H-1,4-diazepin-1-yl)carbonyl]phenyl]-N′-phenylurea]: the 50% inhibitory concentration (IC50) turned out to be 0.87 µM.

Turning to `O=C(Nc1cc(C(=O)N2CCCNCC2)ccc1N1CCN(C(c2ccccc2)c2ccccc2)CC1)NC1CCCCC1` [Cpd 25, N-cyclohexyl-N′-[2-[4-(diphenylmethyl)-1-piperazinyl]-5-[(hexahydro-1H-1,4-diazepin-1-yl)carbonyl]-phenyl]urea], the IC50 is 2.6 µM.

Take `NCCNC(=O)c1ccc(N2CCN(C(c3ccccc3)c3ccccc3)CC2)c(NC(=O)Nc2ccccc2)c1` [Cpd 26, N-(2-aminoethyl)-4-[4-(diphenylmethyl)-1-piperazinyl]-3-[[(phenylamino)carbonyl]amino]-benzamide]: the half-maximal inhibitory concentration (IC50) worked out at 1.9 µM.

For the molecule `NCCNC(=O)c1ccc(N2CCN(C(c3ccccc3)c3ccccc3)CC2)c(NC(=O)NC2CCCCC2)c1` [Cpd 27, N-(2-aminoethyl)-3-[[(cyclohexylamino)carbonyl]amino]-4-[4-(diphenylmethyl)-1-piperazinyl]-benzamide], the IC50 was 2.8 µM.

In general, IC50 refers to the concentration needed to halve the response being measured.
